Experimental data published in US5352462A, “Anti-inflammatory factor, method of isolation, and use” (Stolle Research & Development Corporation, priority 1992, dated 1994).

How the values were obtained:
[1] = tested on: reverse passive Arthus reaction; experiment: Reverse passive Arthus reaction; assay type: in vivo, rat; settings: 20 mg i.v.
Method: The possibility that the anti-inflammatory factor might affect neutrophil involvement was investigated by evaluating the ability of the material to modulate the reverse passive Arthus reaction (RPA). This immune complex-induced response is primarily neutrophil mediated and agents which affect the development of the reaction do so via an effect on these cells. To induce the RPA, rats were injected intradermally with rabbit antibody to ovalbumin and intravenously with native ovalbumin. Ovalbumin/ovalbumin-antibody immune complexes form in and around the dermal blood vessel walls, host neutrophils bind to the Fc portion of the antibody and an intense inflammatory reaction is initiated. It should be noted that, although the response is initiated by immune-complexes, it takes place independently of the host's immune system.
Three parameters are used to quantify the RPA. These are, (1) edema--measured using the accumulation of ^125 I-HSA, (2) hemorrhage--assessed by in vivo pre-labelling RBC's with ^59 Fe and (3) neutrophil accumulation--measured by determining tissue levels of the neutrophils specific enzyme myeloperoxidase (MPO). These assays are known to those of ordinary skill in the art.
Eighteen rats were divided into three groups of six. Rabbit antiovalbumin (40 μl) was injected intradermally at four sites on the back of each animal and 2 mg of ovalbumin injected intravenously immediately afterwards. One group of animals received no other treatment and served as controls. The second group were injected intravenously with 20 mg of a lactose preparation, while the final group were injected intravenously with 20 mg of a purified preparation of MAIF. Both lactose and MAIF preparation were administered with the ovalbumin. The severity of the reaction was assessed 3.5 hours after challenge.

[2] = tested on: neutrophil adhesion to venular endothelium; experiment: Intravital microscopy of PAF-exposed rat mesenteric venules; assay type: in vivo; settings: PAF superfusion 100 nM, 60 min
Method: The temperature of the pedestal was maintained at 37° C. with a constant temperature circulator (Fisher Scientific, model 80).

[3] = tested on: carrageenan-induced footpad edema; experiment: Quantitative rat paw edema test with 125I-HSA; assay type: in vivo; settings: aspirin 200 mg/kg oral, 30 min prior
Method: Peak I from the G-10 column, supplied by Stolle Milk Biologics International, was prepared according to the methods described in U.S. Pat. No. 4,956,349. Lactose, obtained from commercial sources, was used as placebo. Aspirin was used as a positive control. Aspirin was dissolved in water and given orally by gastric gavage at the ratio of 200 mg per kilogram, a dose known to be active in the assay. […] The footpad assay was modified by using isotopically labeled human serum albumin (^125 I-HSA) that localizes in the carrageenan-induced lesion in direct proportion to the volume of the exudate. By determining the total radioactive count in the footpad and comparing this to the counts in a known volume of plasma from the injected animal, a direct measurement of edema in microliters of plasma equivalents is obtained. ^125 I-HSA was injected intravenously at a dose of 1.0 microcurie per rat. Female Dark Agouti rats were used. […]
To conduct the carrageenan footpad assay, 0.1 ml of 2% carrageenan was injected subcutaneously into each hind foot pad of an anesthetized rat. […] Both hind feet were then removed and the levels of radioactivity in each foot and in the 200 μl plasma standard were measured in an automated gamma counter. From these measurements the volume of edema in each foot was calculated and expressed in microliters. […]

[4] = tested on: circulating neutrophils and lymphocytes; experiment: Circulating leucocytes after i.v. administration; assay type: in vivo, rat
Method: Two experiments were done. In the first, the MAIF preparation was administered intravenously at a dose of 40 mg/rat to one group of 6 animals and a control group was injected with saline. Blood samples were obtained at baseline, 1, 4, and 24 hours after treatment.
A further dose-response study was carried out in which a group of rats were injected intravenously with saline, 5, 10 or 20 mg of the MAIF preparation. Blood from each rat had been taken 7 days previously to provide baseline values and was taken again 4 hours after the injection of MAIF. Included on the graph are the results obtained from the sample taken 4 hours after the administration of 40 mg the MAIF preparation (see FIG. 31).
Data were also obtained pertaining to the effect of three other cell-targeted, anti-inflammatory/immunomodulatory agents on circulating leucocytes in the rat. […] The temporal relationship between drug administration and effect is somewhat different. […] The effects of the anti-inflammatory factor would appear to closely parallel the action of methyl-prednisolone.

[5] = tested on: superoxide production by neutrophils; experiment: Superoxide assay, cytochrome C reduction by stimulated neutrophils; assay type: cell-based, human
Method: Neutrophils from healthy donors were purified by dextran sedimentation followed by hypotonic lysis and Histopaque centrifugation. Except for the dextran sedimentation step, which was performed at room temperature, the cells were kept at 4° C. throughout the isolation procedure. […] After isolation, neutrophils were resuspended at a final concentration of 2×10^6 cells/ml in phosphate buffered saline (PBS). […] After washing, neutrophils were incubated in the dark at 4° C. for 30 minutes with saturating concentrations of fluorescein-conjugated murine anti-human CD18, human CD11 b, IGG coated microbeads (Simply Cellular™ microbeads) or the murine negative control antibody.
The reduction of cytochrome C by activated neutrophils was measured using a spectrophotometer (Hitachi U2000) at 550 nm. Briefly, sample was added to two cuvettes and one cuvette was used as a reference. The latter contained superoxide dismutase (superoxide scavenger). […] Superoxide production was measured for 3 min.

For `OC[C@H]1O[C@@H](O[C@H]2[C@H](O)[C@@H](O)C(O)O[C@@H]2CO)[C@H](O)[C@@H](O)[C@H]1O` (stereo partly drawn) [Lactose], the “suppression of neutrophil accumulation and hemorrhage” value [1] was “modest and marginally significant suppression”, the “Haemorrhage: μl of RBC” value ([1]; 3.5 hours after challenge) was 3.0 ± 1.5 μl of RBC and the “Neutrophil accumulation: Units of MPO” value ([1]; 3.5 hours after challenge) was 0.214 ± .176 Units of MPO. The “μl of Edema” value ([1]; 3.5 hours after challenge) was 104 ± 23 µL.

`CCCCCCCCCCCCCCCCOCC(COP(=O)([O-])OCC[N+](C)(C)C)OC(C)=O` (stereo not drawn) [PAF] was tested, and the “increase in neutrophil adhesion to postcapillary venules” value [2] was “approximately 6 fold”.

With `CC(=O)Oc1ccccc1C(=O)O` [aspirin, Acetylsalicylic acid] the inhibition of edema [3] was “inhibited”.

`O=P1(N(CCCl)CCCl)NCCCO1` (stereo not drawn) [cyclophosphamide] was tested, and the “circulating lymphocytes and neutrophils” value ([4]; comparator agents) was “depletes both circulating lymphocytes and neutrophils”.

`C[C@H]1C[C@@H]2[C@H]([C@@H](O)C[C@@]3(C)[C@H]2CC[C@]3(O)C(=O)CO)[C@@]2(C)C=CC(=O)C=C12` [methylprednisolone] was tested, and the lymphocyte/neutrophil ratio ([4]; rat, in vivo) was “analogous to that seen with MAIF”.

superoxide dismutase was tested, and the “cytochrome c reduction by PMA and fMLP-stimulated neutrophils” value [5] was “completely blocked”.
